Reference: patent publication US11497785B2, “Oral anti-parasitic composition” (Mars, Incorporated, priority 2013, dated 2022)
≈ marks a conversion by molar mass, not a printed value.

System: Neospora caninum
Experiment: Proliferation assay of Neospora caninum in HFF cells, tritiated uracil incorporation
Assay type: cell-based
Settings: positive control, read-out: ICSO
Method: In order to solubilize the essential oils, the oils were diluted in dimethyl sulfoxide (DMSO) and then spread in the cell culture medium (DMEM) that was supplemented with 10% fetal calf serum (D10). DMSO was also used at a final concentration not exceeding 0.1%. Separate cultures of both parasites, Toxoplasma gondii and Neospora caninum, were prepared in vitro in human cell type HFF (Human Foreskin Fibroblasts), grown at 37° C. under 5% CO2 in a D10 medium. Both cultures were similar, the inoculum used for the various tests were the same, […] per well. It was observed that growing Neospora caninum is slower than that of Toxoplasma gondii.
Proliferation of the parasite in the cells is measured by counting the specific radioactivity of the incorporated tritiated uracil and compared to the control without essential oil (100% proliferation). The test is performed in 24-well plates and the whole test lasts about 24 hours. The positive control is achieved using pyrimethamine (ICSO: 0.1 μg/mL).
Values represent inhibition of proliferation.
The inhibition of proliferation was measured by incorporating tritiated uracil in both Toxoplasma gondii and Neospora caninum and the viability of HFF cells was assessed using MTT assay.

IC50: 0.1 µg/mL (≈ 0.402 µM)
SMILES: CCc1nc(N)nc(N)c1-c1ccc(Cl)cc1 [pyrimethamine]
